Source: the NIST ThermoML archive (doi:10.1016/j.jct.2014.06.029)
Numbers after ± are expanded uncertainties.

What was measured:
[1] = 298 K; 101.33 kPa; Crystal; X-ray diffraction
[2] = refractive index (Na D-line) (dimensionless); mn = molality of the nth substance listed, in mol/kg; settings: 293.15 K; 101 kPa; Liquid; Standard Abbe refractometry; m1 = 0.02

Row | mass density [1] | refractive index [2] | SMILES
1 | 1749 ± 9 kg/m3 |  | CC(=O)C(=O)[O-].[Na+] [sodium pyruvate]
2 |  | 1.3308 ± 0.0007 | CC(=O)C(=O)[O-].[Na+] [sodium pyruvate] + O
